What all share (format): in vivo
Assay [1] relates to larvae of the mustard beetle (Phaedon cochleariae). The assay is described as follows: Phaedon cochleariae larvae test (sprayed cabbage leaves). The conditions noted are these: Phaedon cochleariae, single active compound. The source says:
(§1) The expected action for a given combination of two active compounds can be calculated as follows, using the formula of S. R. Colby, Weeds 15 (1967), 20-22: • If • X is the kill rate, expressed as % of the untreated control, when employing active compound A at an application rate of m g/ha or in a concentration of in ppm, • Y is the kill rate, expressed as % of the untreated control, when employing active compound B at an application rate of n g/ha or in a concentration of n ppm and • E is the kill rate, expressed as % of the untreated control, when employing active compounds A and B at application rates of m and n g/ha or in a concentration of m and n ppm, • then
(§2) If the actual kill rate exceeds the calculated value, the action of the combination is superadditive, i.e. a synergistic effect is present. In this case, the actually observed kill rate must exceed the value calculated using the above formula for the expected kill rate (E).
(§3) Solvent: 78 parts by weight of acetone • • 1.5 parts by weight of dimethylformamide
(§4) Emulsifier: 0.5 part by weight of alkylaryl polyglycol ether
(§5) To produce a suitable preparation of active compound, 1 part by weight of active compound is mixed with the stated amounts of solvent and emulsifier, and the concentrate is diluted with emulsifier-containing water to the desired concentration.
Cabbage leaves (Brassica oleracea) are treated by spraying with the active compound preparation of the desired concentration and populated with larvae of the mustard beetle (Phaedon cochleariae) while the leaves are still moist.
After the desired period of time, the kill in % is determined. 100% means that all beetle larvae have been killed; 0% means that none of the beetle larvae have been killed. The kill rates determined are entered into Colby's formula.

In assay [2] the test system is armyworm (Spodoptera frugiperda). In words: Spodoptera frugiperda larvae test (sprayed cabbage leaves). The conditions noted are these: Spodoptera frugiperda, single active compound.
Source text: as §1, §2, §3, §4, §5
Cabbage leaves (Brassica oleracea) are treated by being sprayed with the preparation of active compound of the desired concentration and are populated with the armyworm (Spodoptera frugiperda) while the leaves are still moist.
After the desired period of time, the kill in % is determined. 100% means that all caterpillars have been killed; 0% means that none of the caterpillars have been killed. The kill rates determined are entered, into Colby's formula.

In assay [3] the test system is green peach aphid (Myzus persicae). The assay is described as follows: Myzus persicae test (spray treatment of infested cabbage leaves). The settings on record: Myzus persicae.
Source text: as §1, §2, §3, §4, §5
Cabbage leaves (Brassica oleracea) which are heavily infested by the green peach aphid (Myzus persicae) are treated by spraying with the active compound preparation of the desired concentration.
After the desired period of time, the kill in % is determined. 100% means that all of the aphids have been killed; 0% means that none of the aphids have been killed. The kill rates determined are entered into Colby's formula.

In assay [4] the test system is greenhouse red spider mite (Tetranychus urticae). The assay is described as follows: Tetranychus test, OP-resistant/spray treatment (bean leaf discs). The settings on record: Tetranychus urticae, foliar, single active compound.
Source text: as §1, §2, §3, §4, §5
Discs of bean leaves (Phaseolus vulgaris) which are infested by all stages of the greenhouse red spider mite (Tetranychus urticae) are sprayed with an active compound preparation of the desired concentration.
After the desired period of time, the effect in % is determined. 100% means that all of the spider mites have been killed; 0% means that none of the spider mites have been killed.

[5] abbreviates: 48 h, 2 d, read-out: Kill in % after 2 d.
Setting [6] is: 144 h, 6 d, read-out: Kill in % after 6 d.
The mark [7] stands for this setting: 24 h, after 1 d, read-out: Kill in % after 1d.
Where [8] appears, read: 144 h, single active compound, 6 d, read-out: Kill in % after 6 d.

The structures appear in SMILES notation. Read-outs that look alike come from different tables or passages of the source.

Take `c1cnc(-c2cccc(-c3cnc(-c4cccnc4)s3)n2)nc1` [compound of the formula (I-2)]: the pest or weed control at 4 g/ha in assay [1] (setting [5]), in assay [1] (setting [6]), in assay [3] (setting [7]), in assay [4] (setting [5]) and in assay [4] (setting [6]) was 0% in each case. The pest or weed control at 20 g/ha in assay [1] (setting [5]), in assay [1] (setting [6]), in assay [2] (setting [5]), in assay [2] (setting [6]), in assay [3] (setting [7]) and in assay [4] (setting [5]) was 0% each time. The pest or weed control at 100 g/ha in assay [1] (setting [5]), in assay [1] (setting [6]), in assay [2] (setting [5]), in assay [2] (setting [6]), in assay [3] (setting [7]) and in assay [4] (setting [5]) was 0% throughout. Moreover, the pest or weed control at 500 g/ha in assay [1] (setting [5]), in assay [1] (setting [6]), in assay [2] (setting [5]), in assay [2] (setting [6]), in assay [3] (setting [7]) and in assay [4] (setting [5]) was 0% throughout. In addition, the pest or weed control at 500 g/ha in assay [4] (setting [6]) amounted to 0%.

Consider `Fc1cncc(-c2ncc(-c3cccc(-c4ncccn4)n3)s2)c1` [compound of the formula (I-3)], for which the pest or weed control at 4 g/ha in assay [1] (setting [5]) was 0%; in assay [1] (setting [6]), 0%; in assay [3] (setting [7]), 0%; in assay [3] (setting [8]) it was 70%; in assay [4] (setting [5]) it was 0%; in assay [4] (setting [6]), 0%. The pest or weed control at 20 g/ha in assay [1] (setting [5]) was determined as 0%; in assay [2] (setting [6]), 0%; in assay [3] (setting [7]), 0%; in assay [3] (setting [8]), 70%; in assay [4] (setting [5]) it was 0%; in assay [4] (setting [6]), 0%. In addition, the pest or weed control at 100 g/ha in assay [1] (setting [5]), in assay [1] (setting [6]), in assay [2] (setting [6]), in assay [3] (setting [7]) and in assay [4] (setting [6]) was 0% each time. Further, the pest or weed control at 500 g/ha in assay [1] (setting [5]), in assay [1] (setting [6]), in assay [2] (setting [5]), in assay [2] (setting [6]), in assay [3] (setting [7]) and in assay [4] (setting [5]) was 0% throughout. Further, the pest or weed control at 500 g/ha in assay [4] (setting [6]) stood at 0%.

(Values after US20110275583A1, “Synergistic active compound combinations” (priority 2010, published 2011).)
